Key:
[1] = excess molar enthalpy (molar enthalpy of mixing); xn = mol fraction of the nth substance listed; conditions: 101 kPa, Liquid, Calvet calorimetry
[2] = molar heat capacity at constant pressure; xn = mol fraction of the nth substance listed; conditions: 101.3 kPa, Liquid, Small sample (50 mg) DSC

CCOS(=O)(=O)[O-].CCn1cc[n+](C)c1 [1-ethyl-3-methylimidazolium ethyl sulfate] + O
Conditions	excess molar enthalpy [kcal/mol]	molar heat capacity at constant pressure [J/K/mol]
[1], 313.14 K, x2 = 0.2496	-0.109	–
[1], 313.14 K, x2 = 0.2497	-0.11	–
[1], 313.14 K, x2 = 0.4936	-0.183	–
[1], 313.14 K, x2 = 0.4951	-0.184	–
[1], 313.14 K, x2 = 0.7491	-0.231	–
[1], 313.14 K, x2 = 0.7495	-0.233	–
[1], 323.12 K, x2 = 0.2425	-0.116	–
[1], 323.12 K, x2 = 0.2486	-0.114	–
[1], 323.12 K, x2 = 0.4979	-0.189	–
[1], 323.12 K, x2 = 0.4991	-0.189	–
[1], 323.12 K, x2 = 0.7464	-0.221	–
[1], 323.12 K, x2 = 0.7481	-0.226	–
[1], 333.11 K, x2 = 0.2483	-0.119	–
[1], 333.11 K, x2 = 0.2496	-0.121	–
[1], 333.11 K, x2 = 0.496	-0.191	–
[1], 333.11 K, x2 = 0.4974	-0.189	–
[1], 333.11 K, x2 = 0.7476	-0.218	–
[1], 333.11 K, x2 = 0.7484	-0.218	–
[1], 348.12 K, x2 = 0.2492	-0.125	–
[1], 348.12 K, x2 = 0.2499	-0.125	–
[1], 348.12 K, x2 = 0.4948	-0.191	–
[1], 348.12 K, x2 = 0.498	-0.191	–
[1], 348.12 K, x2 = 0.7477	-0.199	–
[1], 348.12 K, x2 = 0.7483	-0.199	–
[2], 283.15 K, x2 = 0	–	365
[2], 283.15 K, x2 = 0.212	–	294
[2], 283.15 K, x2 = 0.4079	–	235
[2], 283.15 K, x2 = 0.5925	–	179
[2], 283.15 K, x2 = 0.766	–	142
[2], 283.15 K, x2 = 0.8495	–	115
[2], 283.15 K, x2 = 0.9282	–	95
[2], 283.15 K, x2 = 0.9684	–	83
[2], 283.15 K, x2 = 0.9916	–	78
[2], 293.15 K, x2 = 0	–	371
[2], 293.15 K, x2 = 0.212	–	297
[2], 293.15 K, x2 = 0.4079	–	239
[2], 293.15 K, x2 = 0.5925	–	184
[2], 293.15 K, x2 = 0.766	–	145
[2], 293.15 K, x2 = 0.8495	–	118
[2], 293.15 K, x2 = 0.9282	–	96
[2], 293.15 K, x2 = 0.9684	–	85
[2], 293.15 K, x2 = 0.9916	–	78
[2], 303.15 K, x2 = 0	–	380
[2], 303.15 K, x2 = 0.212	–	304
[2], 303.15 K, x2 = 0.4079	–	245
[2], 303.15 K, x2 = 0.5925	–	190
[2], 303.15 K, x2 = 0.766	–	149
[2], 303.15 K, x2 = 0.8495	–	122
[2], 303.15 K, x2 = 0.9282	–	98
[2], 303.15 K, x2 = 0.9684	–	86
[2], 303.15 K, x2 = 0.9916	–	79
[2], 313.15 K, x2 = 0	–	386
[2], 313.15 K, x2 = 0.212	–	309
[2], 313.15 K, x2 = 0.4079	–	249
[2], 313.15 K, x2 = 0.5925	–	193
[2], 313.15 K, x2 = 0.766	–	152
[2], 313.15 K, x2 = 0.8495	–	124
[2], 313.15 K, x2 = 0.9282	–	100
[2], 313.15 K, x2 = 0.9684	–	87
[2], 313.15 K, x2 = 0.9916	–	79
[2], 323.15 K, x2 = 0	–	392
[2], 323.15 K, x2 = 0.212	–	314
[2], 323.15 K, x2 = 0.4079	–	253
[2], 323.15 K, x2 = 0.5925	–	197
[2], 323.15 K, x2 = 0.766	–	154
[2], 323.15 K, x2 = 0.8495	–	126
[2], 323.15 K, x2 = 0.9282	–	101
[2], 323.15 K, x2 = 0.9684	–	88
[2], 323.15 K, x2 = 0.9916	–	79
[2], 333.15 K, x2 = 0	–	397
[2], 333.15 K, x2 = 0.212	–	319
[2], 333.15 K, x2 = 0.4079	–	256
[2], 333.15 K, x2 = 0.5925	–	201
[2], 333.15 K, x2 = 0.766	–	157
[2], 333.15 K, x2 = 0.8495	–	127
[2], 333.15 K, x2 = 0.9282	–	102
[2], 333.15 K, x2 = 0.9684	–	88
[2], 333.15 K, x2 = 0.9916	–	80
[2], 343.15 K, x2 = 0	–	403
[2], 343.15 K, x2 = 0.212	–	324
[2], 343.15 K, x2 = 0.4079	–	260
[2], 343.15 K, x2 = 0.5925	–	204
[2], 343.15 K, x2 = 0.766	–	158
[2], 343.15 K, x2 = 0.8495	–	129
[2], 343.15 K, x2 = 0.9282	–	103
[2], 343.15 K, x2 = 0.9684	–	89
[2], 343.15 K, x2 = 0.9916	–	80

Source: the NIST ThermoML archive (doi:10.1021/je800248w)
